Test results published in patent US7329518B2, “Enzyme for producing optically active pyridineethanol derivatives” (Kaneka Corporation, priority 1999, dated 2008).

Tests used:
Type in all cases: biochemical, Candida maris IFO 10003
FPDH [1] = test: Behaviors of FPDH against inhibitors (reducing activity measurement with added compounds and metal salts)
FPDH [2] = test: Oxidation activity of FPDH against various compounds as substrates; details: substrate 1 mM; 5-(1-(R)-hydroxyethyl)furo[2,3-c]pyridine = 100%; 0.25 mM NAD+, pH 8.0, 30° C.
Protocol: Further, FPDH was examined for oxidation activity against various compounds. The oxidation activity was measured by allowing the reaction to proceed at 30° C. for 3 minutes in 3.0 ml of a reaction mixture containing 1 mM substrate, 0.25 mM NAD^+, 0.3% (vol/vol) dimethyl sulfoxide and 0.05 ml of the enzyme solution in 100 mM phosphate buffer (pH 8.0) and measuring the increase in absorbance at the wavelength 340 nm. These conditions were employed as standard reaction conditions for oxidizing activity substrate measurement. The enzyme activity reducing 1 μmole of NAD^+ to NADH in one minute under these reaction conditions was defined as 1 unit. The data shown in Table 10 are relative activities with the oxidation activity against the substrate 5-(1-(R)-hydroxyethyl)furo[2,3-c]pyridine being taken as 100%.

FPDH [3] = test: Specificity of FPDH: reducing activity against various carbonyl compounds as substrates; details: substrate 1 mM; 5-acetylfuro[2,3-c]pyridine = 100%; 0.25 mM NADH, pH 6.5, 30° C.
Protocol: In the practice of the invention, the reducing activity of the enzyme is determined by carrying out the reaction in 3.0 ml of a reactant mixture containing 1 mM substrate, 0.25 mM coenzyme NADH, 0.3% (vol/vol) dimethyl sulfoxide and an enzyme solution in 100 mM phosphate buffer (pH 6.5) at 30° C. for 3 minutes and then measuring the reduction in absorbance at 340 nm.
The term “very low in reducing activity” referring to the specificity means that when the reducing activity against 5-acetylfuro[2,3-c]pyridine is taken as 100%, the reducing activity against the substrate in question is not more than 10%. The term “carbocyclic ketones” means ketones, such as cyclohexanone and cyclopentanone, derived from alicyclic compounds by substituting —C(═O)— for a ring constituent —CH2— thereof.
Hereafter, the reducing activity was measured by allowing the reaction to proceed at 30° C. for 3 minutes in 3.0 ml of a reaction mixture containing 1 mM 5-acetylfuro[2,3-c]pyridine (substrate), 0.25 mM NADH, 0.3% (vol/vol) dimethyl sulfoxide and 0.05 ml of the enzyme solution in 100 mM phosphate buffer (pH 6.5) and measuring the decrease in absorbance at the wavelength 340 nm. These conditions were employed as standard reaction conditions for reducing activity measurement. The enzyme activity oxidizing 1 μmole of NADH to NAD^+ in one minute under these reaction conditions was defined as 1 unit.
The reducing activity of FPDH was examined against various compounds. Activity measurements were conducted under the standard reaction conditions for reducing activity measurement using various carbonyl compounds shown in Table 8 and Table 9 as substrates in lieu of 5-acetylfuro[2,3-c]pyridine. In Table 8 and Table 9, the results are shown in terms of relative activity with the reducing activity when 5-acetylfuro[2,3-c]pyridine was used as the substrate being taken as 100%. As a result, FPDH had reducing activity against ketones and aldehydes but the reducing activity thereof was very low against carbocyclic ketones and the ketone in position α to a carboxyl group.

[4] = inhibitor 1.0 mM, activity without inhibitor = 100%, 1 mM 5-acetylfuro[2,3-c]pyridine, 0.25 mM NADH, pH 6.5, 30° C.
[5] = inhibitor 0.01 mM, activity without inhibitor = 100%, 1 mM 5-acetylfuro[2,3-c]pyridine, 0.25 mM NADH, pH 6.5, 30° C.

| SMILES | Relative activity (reducing activity, Table 9) (FPDH [3]) [%] | Relative activity (reducing activity, Table 8) (FPDH [3]) [%] | further results |
| --- | --- | --- | --- |
| CCN1C(=O)C=CC1=O [N-ethylmaleimide] | – | – | Relative activity (FPDH [1]; [4]): 84% |
| C=CC(C)O (stereo not shown) [1-Buten-3-ol] | – | – | Relative activity (oxidation activity) (FPDH [2]): 261% |
| COC(=O)CC(C)=O [Methyl acetoacetate] | 128 | – | – |
| O=Cc1ccc(Cl)cc1 [p-Chlorobenzaldehyde] | 104 | – | – |
| CC(=O)c1cccs1 [2-Acetylthiophene] | – | 77 | – |
| [Cl-].[Cl-].[Co+2] [CoCl2] | – | – | Relative activity (FPDH [1]; pH 6.5): 85% |
| COC(=O)C(C)=O [Methyl pyruvate] | – | 132 | – |
| CCCCC(C)=O [2-Hexanone] | – | 38 | – |
| CC(=O)CC(C)=O [Acetylacetone] | – | 123 | – |
| CC(=O)c1nccs1 [2-Acetylthiazole] | – | 86 | – |
| C[C@@H](O)c1cc2ccoc2cn1 [(R)-5-(1-Hydroxyethyl)furo[2,3-c]pyridine] | – | – | Relative activity (oxidation activity) (FPDH [2]): 100% |
| CC(=O)C(C)C [Methyl isopropyl ketone] | – | 43 | – |
| CC(=O)c1cccc([N+](=O)[O-])c1 [m-Nitroacetophenone] | – | 136 | – |
| CC(=O)c1ccccc1Cl [o-Chloroacetophenone] | – | 9 | – |
| O=Cc1cccc([N+](=O)[O-])c1 [m-Nitrobenzaldehyde] | 103 | – | – |
| O=C(O)c1cc[c]([Hg][Cl])cc1 [p-Chloromercuribenzoic acid] | – | – | Relative activity (FPDH [1]; inhibitor 0.1 mM, activity without inhibitor = 100%, 1 mM 5-acetylfuro[2,3-c]pyridine, 0.25 mM NADH, pH 6.5, 30° C.): 100% |
| O=C(O)CI [Iodoacetic acid] | – | – | Relative activity (FPDH [1]; pH 6.5): 80% |
| C=CCC(C)O (stereo not shown) [4-Penten-2-ol] | – | – | Relative activity (oxidation activity) (FPDH [2]): 172% |
| CCCC(=O)C(=O)O [2-Keto-n-valeric acid] | 7 | – | – |
| O=C(CO)c1ccccc1 [2-Hydroxyacetophenone] | – | 54 | – |
| CCC(C)=O [2-Butanone] | – | 94 | – |

| SMILES | Relative activity (reducing activity, Table 9) (FPDH [3]) [%] | Relative activity (reducing activity, Table 8) (FPDH [3]) [%] | further results |
| --- | --- | --- | --- |
| OCCS [2-Mercaptoethanol] | – | – | Relative activity (FPDH [1]; [4]): 94% |
| O=Cc1ccccn1 [Pyridine-2-aldehyde] | 54 | – | – |
| CC12CCC(C(=O)C1=O)C2(C)C (stereo not shown) [Camphorquinone] | 3 | – | – |
| CCOC(=O)C(C)=O [Ethyl pyruvate] | – | 133 | – |
| C[C@@H](O)c1ccccc1 [(R)-1-Phenylethanol] | – | – | Relative activity (oxidation activity) (FPDH [2]): 225% |
| O=Cc1cccc(Cl)c1 [m-Chlorobenzaldehyde] | 111 | – | – |
| O=C(O)CC(=O)C(=O)O [Oxalacetic acid] | 4 | – | – |
| CC(=O)c1ccncc1 [4-Acetylpyridine] | – | 130 | – |
| CCOC(=O)C(Cl)C(C)=O (stereo not shown) [Ethyl 2-chloroacetoacetate] | 88 | – | – |
| O=S(=O)([O-])[O-].[Zn+2] [ZnSO4] | – | – | Relative activity (FPDH [1]; [4]): 74% |
| c1cnc2c(c1)ccc1cccnc12 [1,10-Phenanthroline] | – | – | Relative activity (FPDH [1]; [4]): 98% |
| O=S(=O)([O-])[O-].[Mg+2] [MgSO4] | – | – | Relative activity (FPDH [1]; [4]): 81% |
| O[C@H](CS)[C@H](O)CS (racemic) [Dithiothreitol] | – | – | Relative activity (FPDH [1]; [4]): 93% |
| CC(=O)C1CCCCC1=O (stereo not shown) [1-Acetylcyclohexanone] | – | 68 | – |
| CC(=O)c1ccc(F)cc1 [p-Fluoroacetophenone] | – | 88 | – |
| CCCCCC=O [n-Hexyl aldehyde] | 71 | – | – |
| CC(C)=O [Acetone] | – | 40 | – |
| CC(=O)CC(C)C [Methyl isobutyl ketone] | – | 14 | – |
| CCCCCCC(C)=O [2-Octanone] | – | 38 | – |
| CCCC=O [n-Butyr aldehyde] | 123 | – | – |
| CCC=O [Propionaldehyde] | 70 | – | – |

| SMILES | Relative activity (reducing activity, Table 9) (FPDH [3]) [%] | Relative activity (reducing activity, Table 8) (FPDH [3]) [%] | further results |
| --- | --- | --- | --- |
| CC(=O)c1cc2ccoc2c(Cl)n1 [1-Chloro-5-acetylfuro[2,3-c]pyridine] | – | 66 | – |
| CC(=O)c1ccc([N+](=O)[O-])cc1 [p-Nitroacetophenone] | – | 116 | – |
| O=Cc1ccncc1 [Pyridine-4-aldehyde] | 64 | – | – |
| CC(=O)c1ccc(Cl)cc1 [p-Chloroacetophenone] | – | 88 | – |
| CC(=O)C(=O)O [Pyruvic acid] | 3 | – | – |
| CC(=O)CCc1ccccc1 [Benzylacetone] | – | 96 | – |
| CC(=O)C(C)O (stereo not shown) [Acetoin] | – | 43 | – |
| O=C(O)CN(CCN(CC(=O)O)CC(=O)O)CC(=O)O [EDTA] | – | – | Relative activity (FPDH [1]; [4]): 98% |
| O=Cc1ccccc1Cl [o-Chlorobenzaldehyde] | 0 | – | – |
| CC(=O)C1CCCC1=O (stereo not shown) [1-Acetylcyclopentanone] | – | 86 | – |
| O=Cc1ccccc1[N+](=O)[O-] [o-Nitrobenzaldehyde] | 9 | – | – |
| CCC(=O)C(=O)O [2-Ketobutyric acid] | 5 | – | – |
| CC=O [Acetaldehyde] | 36 | – | – |
| [Cl][Hg][Cl] [HgCl2] | – | – | Relative activity (FPDH [1]; [4]): 0% |
| O=C(O)c1cc(SSc2ccc([N+](=O)[O-])c(C(=O)O)c2)ccc1[N+](=O)[O-] [DTNB] | – | – | Relative activity (FPDH [1]; [5]): 98% |
| O=C1CCc2ccccc2C1 [2-Tetralone] | 0 | – | – |
| O=C(CCl)c1cccc(Cl)c1 [2,3′-Dichloroacetophenone] | – | 19 | – |
| O=Cc1ccc([N+](=O)[O-])cc1 [p-Nitrobenzaldehyde] | 162 | – | – |
| CC(=O)c1ccc[nH]1 [2-Acetylpyrrole] | – | 100 | – |
| CCCC(C)=O [2-Pentanone] | – | 67 | – |
| O=Cc1ccccc1 [Benzaldehyde] | 94 | – | – |

| SMILES | Relative activity (reducing activity, Table 9) (FPDH [3]) [%] | Relative activity (reducing activity, Table 8) (FPDH [3]) [%] | further results |
| --- | --- | --- | --- |
| [Cl][Mn][Cl] [MnCl2] | – | – | Relative activity (FPDH [1]; [4]): 76% |
| [Hg+2] [mercury ion] | – | – | Inhibition of the enzyme activity (in words) (FPDH [1]; standard reaction conditions for reducing activity measurement): inhibited |
| CC(=O)c1cccc(Cl)c1 [m-Chloroacetophenone] | – | 120 | – |
| O=S(=O)([O-])[O-].[Cu+2] [CuSO4] | – | – | Relative activity (FPDH [1]; [4]): 103% |
| CC(=O)c1ccccc1 [Acetophenone] | – | 88 | – |
| CCOC(=O)CC(C)=O [Ethyl acetoacetate] | 141 | – | – |
| CC(=O)c1ccco1 [2-Acetylfuran] | – | 43 | – |
| CC(=O)c1cnccn1 [Acetylpyrazine] | – | 133 | – |
| CC(=O)c1cccnc1 [3-Acetylpyridine] | – | 107 | – |
| CC(=O)c1cc2ccoc2cn1 [5-Acetylfuro[2,3-c]pyridine] | – | 100 | – |
| O=C1CCCCC1 [Cyclohexanone] | 4 | – | – |
| O=C1CCCc2ccccc21 [1-Tetralone] | 2 | – | – |
| O=c1c(O)c(-c2ccc(O)c(O)c2)oc2cc(O)cc(O)c12 [Quercetin] | – | – | Relative activity (FPDH [1]; [5]): 78% |
| CC(=O)c1ccccn1 [2-Acetylpyridine] | – | 111 | – |
| O=C1CCCC1 [Cyclopentanone] | 3 | – | – |
| CCC(=O)CC [Diethyl ketone] | – | 22 | – |
| O=Cc1cccnc1 [Pyridine-3-aldehyde] | 47 | – | – |
| O=C1CCCCCC1 [Cycloheptanone] | 4 | – | – |
| CC(=O)C(C)=O [Diacetyl] | – | 107 | – |
